The record followed here is PubChem BioAssay AID2387 (Broad Institute, 2010).

Calls of active or inactive are those of the source.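 The calls were made as follows: active = fitted EC50 no more than tenfold above the highest tested concentration; inconclusive = flat fit with 30 to 70% signal loss, or poor fit; inactive = the rest.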

The subject of the experiment is Candida albicans CaCi-2 growth (no fluconazole), Alamar Blue. The experiment in a line: intrinsic antifungal toxicity in Candida, azole-free – CaCi-2 strain, Alamar Blue fluorescence, counter-screen for fluconazole resistance reversal project, dose response (AID 2387). The following applies: C. albicans CaCi-2 (fluconazole-resistant clinical isolate) growth without fluconazole, 48 h. A general note: The colour change of resazurin is a common sign of viable cells or microbes.
Broadly, the EC50 is the concentration that produces a half-maximal response. As to `O=C(c1cc2c(s1)CCCCC2)N1CCN(c2ncccn2)CC1`, the EC50 is > 16 µM (inactive). To `O=C(NCc1ccc(F)cc1)C(c1ccccc1)N(CC1CCCO1)C(=O)Cn1nnc2ccccc21` (configuration not stated) belongs > 15 µM (inactive); to `O=C(Nc1sc2c(c1C(=O)c1ccc(Cl)cc1)CCCC2)c1cccnc1`, > 15 µM (inactive); to `O=C(N/N=C/c1ccccc1O)c1cccc(C(F)(F)F)c1`, > 15 µM (inactive). As for `Cc1nc2ccccc2cc1OCc1ccc(F)cc1`, the EC50 was > 16 µM (inactive). Under `O=c1[nH]c(=S)[nH]nc1Cc1ccc(Cl)c(Cl)c1` stands > 16 µM (inactive); under `COc1cc2c(cc1NC(=O)c1ccco1)CCCC2`, > 15 µM (inactive); under `Cc1ccc(C)c(NC(=S)NNC(=O)c2csc(C(C)C)c2)c1`, > 16 µM (inactive). As for `O=C(Nc1nc2ccc(SC(F)F)cc2s1)c1ccc(NS(=O)(=O)c2ccc(F)c(F)c2)cc1`, the EC50 was > 15 µM (inactive). `Oc1c(C(c2ccc(Cl)cc2)N2CCCC2)cc(Cl)c2cccnc12` (configuration not stated): the EC50 was 3.15 µM. Consider `[O-][n+]1cccc2c(Br)cc(Br)c(O)c21`, for which the EC50 was 16.4 µM. Under `CCCCC(=O)NC(c1ccco1)c1cc(Cl)c2cccnc2c1O` (configuration not stated) stands 10.5 µM; under `O=[N+]([O-])c1ccc(O)c(Nc2ncnc3ccc(Br)cc23)c1`, > 16 µM (inactive); under `O=C(Nc1nnc(-c2ccco2)o1)c1cccc(Cl)c1`, > 15 µM (inactive). Under `Cc1ccc(NC(=O)CNC(=O)c2ccc(Oc3ccccc3)cc2)nc1` stands > 15 µM (inactive); under `C(=C\c1ccccc1)/CN1CCN(c2ncnc3c2oc2ccccc23)CC1`, > 16 µM (inactive). For the compound `O=C(NNC1=C(C(=O)C(F)(F)F)CCC1)c1ccc(Cl)cc1`, the EC50 is > 15 µM (inactive).

As to `COc1ccccc1NC1=C(N2CCCCC2)C(=O)c2ccccc2C1=O`, the EC50 is > 16 µM (inactive). Under `O=C(c1cc(-c2ccccc2)n[nH]1)N1CCc2c([nH]c3ccccc23)C1c1ccccn1` (configuration not stated) stands > 16 µM (inactive); under `CC(C)CC(=O)NC(c1cccs1)c1ccc2cccnc2c1O` (configuration not stated), 14.2 µM; under `CCCCOc1cccc(C2C(C(=O)c3ccc(C)o3)=C(O)C(=O)N2Cc2ccco2)c1` (configuration not stated), > 15 µM (inactive).

For the compound `CCN1/C(=C/C(C)=C/c2sc3ccccc3[n+]2CC)Sc2ccccc21`, the concentration for a half-maximal effect (EC50) was 2.38 µM. For the compound `Cc1cc(=O)oc2cc(Oc3ccc([N+](=O)[O-])cc3[N+](=O)[O-])ccc12`, the EC50 was > 16 µM (inactive).

On to `O=C(Oc1c(Cl)cc(Cl)c2cccnc12)c1ccco1`, for which the half-maximal effective concentration (EC50) was 1.17 µM. To `C=CCn1c(N)nc2ccccc21` belongs > 16 µM (inactive); to `CN1CCN(C(c2ccc(C(F)(F)F)cc2)c2cc(Cl)c3cccnc3c2O)CC1` (configuration not stated), 2.45 µM. To `[O-][N+]1=c2ccc(Nc3ccccc3)cc2=NC12CCCCC2` belongs > 15 µM (inactive); to `CCCCCCSc1nnc2[nH]c(=O)cc(N)n12`, > 15 µM (inactive). Take `CC(=O)Nc1ccc(Nc2c3ccccc3nc3ccccc23)cc1`: the EC50 is > 15 µM (inactive). In the case of `O=[N+]([O-])c1cc(CN2CCN(c3ccccc3)CC2)c(O)c2ncccc12`, the 50% effective concentration (EC50) was 6.17 µM.

In the case of `CCCCCCC[n+]1ccc(-c2cc[n+](CCCCCCC)cc2)cc1`, the EC50 is 1.68 µM. `Clc1ccc(CONc2ncnc3nonc23)c(Cl)c1`: the EC50 was > 16 µM (inactive). In the case of `COc1ccc(C(NC(=O)C(C)C)c2ccc3cccnc3c2O)cc1` (configuration not stated), the EC50 was > 15 µM (inactive). Under `Cc1cccc2sc(NNC(=O)c3cc(-c4cccs4)nc4ccccc34)nc12` stands > 16 µM (inactive); under `O=C(Cc1nc2ccccc2s1)c1ccc(O)cc1O`, > 16 µM (inactive). To `O=C(NCc1cc([N+](=O)[O-])ccc1O)c1cccnc1Sc1ccccc1Cl` belongs > 15 µM (inactive). As for `COc1cccc(/C=N/Nc2ncnc3scc(-c4ccccc4)c23)c1O`, the EC50 was 6.58 µM.
